Measurements from publication PMC5423977, “Safety, pharmacokinetics, and pharmacodynamics of BMS-986142, a novel reversible BTK inhibitor, in healthy participants” (European Journal of Clinical Pharmacology, 2017).

Assay: Safety and tolerability (adverse events), Study 1 SAD in healthy participants
Format: in vivo, human
[1] = Study 1 SAD group, BMS-986142-treated
[2] = Study 1 SAD, all BMS-986142 doses, n = 36

SMILES: Cc1c(-c2c(F)cc(C(N)=O)c3[nH]c4c(c23)CC[C@H](C(C)(C)O)C4)cccc1-n1c(=O)c2cccc(F)c2n(C)c1=O [BMS-986142, 6-fluoro-5-(R)-(3-(S)-(8-fluoro-1-methyl-2,4-dioxo-1,2-dihydroquinazolin-3(4H)-yl)-2-methylphenyl)-2-(S)-(2-hydroxypropan-2-yl)-2,3,4,9-tetrahydro-1H-carbazole-8-carboxamide]
- AE: Polyuria (SAD 100 mg, n = 6): 1 (16.7) n (%)
- AE: Syncope (SAD 100 mg, n = 6): 0 n (%)
- AE: Tension headache (SAD 100 mg, n = 6): 1 (16.7) n (%)
- AE: Thermal burn (SAD 100 mg, n = 6): 0 n (%)
- AE: Toothache (SAD 100 mg, n = 6): 0 n (%)
- AE: Upper respiratory tract infection (SAD 100 mg, n = 6): 0 n (%)
- AE: Vomiting (SAD 100 mg, n = 6): 1 (16.7) n (%)
- Total participants with an event (SAD 100 mg, n = 6): 2 (33.3) n (%)
- AE SOC: Gastrointestinal Disorders (SAD 300 mg, n = 6): 1 (16.7) n (%)
- AE SOC: General disorders and administration site conditions (SAD 300 mg, n = 6): 0 n (%)
- AE SOC: Infections and infestations (SAD 300 mg, n = 6): 0 n (%)
- AE SOC: Injury, poisoning and procedural complications (SAD 300 mg, n = 6): 0 n (%)
- AE SOC: Musculoskeletal and connective tissue disorders (SAD 300 mg, n = 6): 0 n (%)
- AE SOC: Nervous system disorders (SAD 300 mg, n = 6): 0 n (%)
- AE SOC: Renal and urinary disorders (SAD 300 mg, n = 6): 0 n (%)
- AE SOC: Respiratory, thoracic and mediastinal disorders (SAD 300 mg, n = 6): 0 n (%)
- AE: Aphthous stomatitis (SAD 300 mg, n = 6): 0 n (%)
- AE: Chest pain (SAD 300 mg, n = 6): 0 n (%)
- AE: Contusion (SAD 300 mg, n = 6): 0 n (%)
- AE: Cough (SAD 300 mg, n = 6): 0 n (%)
- AE: Diarrhoea (SAD 300 mg, n = 6): 0 n (%)
- AE: Dizziness (SAD 300 mg, n = 6): 0 n (%)
- AE: Headache (SAD 300 mg, n = 6): 0 n (%)
- AE: Lip Dry (SAD 300 mg, n = 6): 1 (16.7) n (%)
- AE: Muscle spasms (SAD 300 mg, n = 6): 0 n (%)
- AE: Nausea (SAD 300 mg, n = 6): 0 n (%)
- AE: Paraesthesia (SAD 300 mg, n = 6): 0 n (%)
- AE: Polyuria (SAD 300 mg, n = 6): 0 n (%)
- AE: Syncope (SAD 300 mg, n = 6): 0 n (%)
- AE: Tension headache (SAD 300 mg, n = 6): 0 n (%)
- AE: Thermal burn (SAD 300 mg, n = 6): 0 n (%)
- AE: Toothache (SAD 300 mg, n = 6): 0 n (%)
- AE: Upper respiratory tract infection (SAD 300 mg, n = 6): 0 n (%)
- AE: Vomiting (SAD 300 mg, n = 6): 0 n (%)
- Total participants with an event (SAD 300 mg, n = 6): 1 (16.7) n (%)
- AE SOC: Gastrointestinal Disorders (SAD 900 mg, n = 6): 2 (33.3) n (%)
- AE SOC: General disorders and administration site conditions (SAD 900 mg, n = 6): 1 (16.7) n (%)
- AE SOC: Infections and infestations (SAD 900 mg, n = 6): 1 (16.7) n (%)
- AE SOC: Injury, poisoning and procedural complications (SAD 900 mg, n = 6): 0 n (%)
- AE SOC: Musculoskeletal and connective tissue disorders (SAD 900 mg, n = 6): 0 n (%)
- AE SOC: Nervous system disorders (SAD 900 mg, n = 6): 2 (33.3) n (%)
- AE SOC: Renal and urinary disorders (SAD 900 mg, n = 6): 0 n (%)
- AE SOC: Respiratory, thoracic and mediastinal disorders (SAD 900 mg, n = 6): 1 (16.7) n (%)
- AE: Aphthous stomatitis (SAD 900 mg, n = 6): 0 n (%)
- AE: Chest pain (SAD 900 mg, n = 6): 1 (16.7) n (%)
- AE: Contusion (SAD 900 mg, n = 6): 0 n (%)
- AE: Cough (SAD 900 mg, n = 6): 1 (16.7) n (%)
- AE: Diarrhoea (SAD 900 mg, n = 6): 1 (16.7) n (%)
- AE: Dizziness (SAD 900 mg, n = 6): 1 (16.7) n (%)
- AE: Headache (SAD 900 mg, n = 6): 2 (33.3) n (%)
- AE: Lip Dry (SAD 900 mg, n = 6): 0 n (%)
- AE: Muscle spasms (SAD 900 mg, n = 6): 0 n (%)
- AE: Nausea (SAD 900 mg, n = 6): 1 (16.7) n (%)
- AE: Paraesthesia (SAD 900 mg, n = 6): 1 (16.7) n (%)
- AE: Polyuria (SAD 900 mg, n = 6): 0 n (%)
- AE: Syncope (SAD 900 mg, n = 6): 0 n (%)
- AE: Tension headache (SAD 900 mg, n = 6): 0 n (%)
- AE: Thermal burn (SAD 900 mg, n = 6): 0 n (%)
- AE: Toothache (SAD 900 mg, n = 6): 0 n (%)
- AE: Upper respiratory tract infection (SAD 900 mg, n = 6): 1 (16.7) n (%)
- AE: Vomiting (SAD 900 mg, n = 6): 0 n (%)
- Total participants with an event (SAD 900 mg, n = 6): 2 (33.3) n (%)
- AE SOC: Gastrointestinal Disorders (SAD any dose, n = 36): 5 (13.9) n (%)
- AE SOC: General disorders and administration site conditions (SAD any dose, n = 36): 1 (2.8) n (%)
- AE SOC: Infections and infestations (SAD any dose, n = 36): 2 (5.6) n (%)
- AE SOC: Injury, poisoning and procedural complications (SAD any dose, n = 36): 1 (2.8) n (%)
- AE SOC: Musculoskeletal and connective tissue disorders (SAD any dose, n = 36): 1 (2.8) n (%)
- AE SOC: Nervous system disorders (SAD any dose, n = 36): 5 (13.9) n (%)
- AE SOC: Renal and urinary disorders (SAD any dose, n = 36): 1 (2.8) n (%)
- AE SOC: Respiratory, thoracic and mediastinal disorders (SAD any dose, n = 36): 1 (2.8) n (%)
- AE: Aphthous stomatitis (SAD any dose, n = 36): 1 (2.8) n (%)
- AE: Chest pain (SAD any dose, n = 36): 1 (2.8) n (%)
- AE: Contusion (SAD any dose, n = 36): 1 (2.8) n (%)
- AE: Cough (SAD any dose, n = 36): 1 (2.8) n (%)
- AE: Diarrhoea (SAD any dose, n = 36): 1 (2.8) n (%)
- AE: Dizziness (SAD any dose, n = 36): 1 (2.8) n (%)
- AE: Headache (SAD any dose, n = 36): 4 (11.1) n (%)
- AE: Lip Dry (SAD any dose, n = 36): 1 (2.8) n (%)
- AE: Muscle spasms (SAD any dose, n = 36): 1 (2.8) n (%)
- AE: Nausea (SAD any dose, n = 36): 1 (2.8) n (%)
- AE: Paraesthesia (SAD any dose, n = 36): 1 (2.8) n (%)
- AE: Polyuria (SAD any dose, n = 36): 1 (2.8) n (%)
- AE: Syncope (SAD any dose, n = 36): 0 n (%)
- AE: Tension headache (SAD any dose, n = 36): 1 (2.8) n (%)
- AE: Thermal burn (SAD any dose, n = 36): 1 (2.8) n (%)
- AE: Toothache (SAD any dose, n = 36): 0 n (%)
- AE: Upper respiratory tract infection (SAD any dose, n = 36): 2 (5.6) n (%)
- AE: Vomiting (SAD any dose, n = 36): 1 (2.8) n (%)
- Total participants with an event (SAD any dose, n = 36): 8 (22.2) n (%)
- Number of AEs reported [1]: 22 AEs
- Participants with AEs [1]: 8 participants
- AE: Cough [2]: 1 (2.8) n (%)
- AE: Diarrhea [2]: 1 (2.8) n (%)
- AE: Dizziness [2]: 1 (2.8) n (%)
- AE: Headache/tension headache [2]: 5 (13.9) n (%)
- AE: Nausea [2]: 1 (2.8) n (%)
- AE: Thermal burns [2]: 1 (2.8) n (%)
- AE: Upper respiratory tract infection [2]: 2 (5.6) n (%)
- Subjects with AEs [2]: 8 (22.2) n (%)
- Tolerability (healthy participants, alone and in combination with MTX (studies 1 and 2)): generally well tolerated
